This note sets out measurements from patent US20250009737A1, “COMPOUNDS AND METHODS FOR THE TARGETED DEGRADATION OF ANDROGEN RECEPTOR” (Arvinas Operations, Inc., priority 2023, published 2025).

pIC50: −log10 of the molar value. Where two headings read alike, the source gives them in different places.

Holding throughout (type): in vitro ADME
Data set [1] deals with T1, CYP2C8 (Homo sapiens, UniProt P10632).
T1 construct: evaluated in pooled human liver microsomes (HLM); from tissue; host or cells: pooled human liver microsomes
T1 sequence (P10632 whole entry): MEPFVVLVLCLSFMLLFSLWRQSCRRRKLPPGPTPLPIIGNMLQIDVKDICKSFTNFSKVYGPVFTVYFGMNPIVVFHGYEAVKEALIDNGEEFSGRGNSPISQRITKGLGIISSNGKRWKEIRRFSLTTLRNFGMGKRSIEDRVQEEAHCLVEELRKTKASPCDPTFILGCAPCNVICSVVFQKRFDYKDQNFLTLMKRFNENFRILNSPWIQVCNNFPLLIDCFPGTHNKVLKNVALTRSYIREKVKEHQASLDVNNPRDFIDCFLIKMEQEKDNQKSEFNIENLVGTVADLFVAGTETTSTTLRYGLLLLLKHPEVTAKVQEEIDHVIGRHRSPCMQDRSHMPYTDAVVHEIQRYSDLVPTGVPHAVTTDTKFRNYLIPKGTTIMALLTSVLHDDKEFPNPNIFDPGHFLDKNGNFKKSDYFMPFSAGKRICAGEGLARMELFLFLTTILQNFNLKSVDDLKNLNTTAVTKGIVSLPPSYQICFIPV
The data set can be described thus: Direct and time-dependent CYP2C8 inhibition in pooled human liver microsomes. The conditions noted are these: pooled HLM, substrate Amodiaquine 2 μM. The protocol: (§1) The induction potential of Compound A on CYP enzymes was assessed in cryopreserved human hepatocytes from three donors. Following treatment for with Compound A at concentrations of 0.03-30 μM for 48 hours, mRNA levels for CYP1A2, 2B6, 2C8, 2C9, 2C19, and 3A4 were determined by semiquantitative real-time polymerase chain reaction (PCR). Test article concentrations during 24-hour incubation were determined. The potential of Compound A to cause direct and time-dependent inhibition (TDI) of the activities of CYP1A2, 2B6, 2C8, 2C9, 2C19, 2D6, and 3A4 was evaluated in pooled human liver microsomes (HLM) at 0.2-15 μM. Probe substrate concentrations around Km were used for direction inhibition and initial TDI assays. For TDI assay, Compound A was pre-incubated with pooled HLM with and without NADPH for 30 minutes prior to incubation with a single concentration of probe substrate.
A general note: Liver microsomes are vesicles of endoplasmic reticulum, rich in cytochrome P450 enzymes.

For data set [2], the target named is T2, BCRP (Homo sapiens, UniProt Q9UNQ0).
T2 sequence (Q9UNQ0 1-655): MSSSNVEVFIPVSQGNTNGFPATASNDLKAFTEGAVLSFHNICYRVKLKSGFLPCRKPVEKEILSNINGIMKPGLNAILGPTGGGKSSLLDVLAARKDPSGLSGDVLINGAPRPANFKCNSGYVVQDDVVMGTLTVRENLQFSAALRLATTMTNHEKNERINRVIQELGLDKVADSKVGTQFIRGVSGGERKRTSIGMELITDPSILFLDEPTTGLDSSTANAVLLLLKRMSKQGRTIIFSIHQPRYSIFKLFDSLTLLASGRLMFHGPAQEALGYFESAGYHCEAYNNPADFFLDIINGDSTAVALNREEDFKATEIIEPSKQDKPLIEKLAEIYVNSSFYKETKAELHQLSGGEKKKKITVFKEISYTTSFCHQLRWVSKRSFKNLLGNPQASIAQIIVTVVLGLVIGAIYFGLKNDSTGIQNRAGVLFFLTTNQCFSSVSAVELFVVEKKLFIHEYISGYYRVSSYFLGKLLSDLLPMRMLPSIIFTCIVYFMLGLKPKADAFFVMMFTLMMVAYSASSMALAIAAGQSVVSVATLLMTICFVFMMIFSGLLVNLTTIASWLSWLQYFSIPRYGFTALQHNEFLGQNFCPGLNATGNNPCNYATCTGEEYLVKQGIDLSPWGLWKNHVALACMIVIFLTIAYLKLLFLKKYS
The data set can be described thus: BCRP inhibition, bidirectional transport in BCRP-expressed MDCKII monolayers. Set-up: expressed in transfected cells; host or cells: MDCKII. As to the method:
(§2) In addition, the inhibition potential against efflux transporters (P-glycoprotein (Pgp) and breast cancer resistance protein (BCRP)) and uptake transporters (MATE1, MATE2-K, OATP1B1, OATP1B3, OAT1, OAT3, and OCT2) was assessed using single transporter over-expressed cell monolayers (MDCK II or HEK293) or inside-out vesicles.
(§3) The potential of Compound A to inhibit Pgp or BCRP was tested for bidirectional transport of the probe substrates in Pgp or BCRP-expressed MDCKII and control monolayers at Compound A concentrations of 0.07-5 μM. Pgp and BCR inhibition were tested in inside-out membrane vesicles prepared from HEK293 overexpressing human Pgp and BCR at concentrations of 0.01-9 μM Compound A in the presence of 4 mM MgATP or MgAMP.

Data set [3] concerns the target T3, CYP2C19 (Homo sapiens, UniProt P33261).
T3 construct: evaluated in pooled human liver microsomes (HLM); from tissue; host or cells: pooled human liver microsomes
As to the kind of experiment: Direct and time-dependent CYP2C19 inhibition in pooled human liver microsomes. The conditions noted are these: pooled HLM, substrate S-Mephenytoin 20 μM. The protocol: as §1

Data set [4] addresses Pgp (Homo sapiens, UniProt P08183). As to the kind of experiment: Pgp inhibition, bidirectional transport in Pgp-expressed MDCKII monolayers. On the set-up: expressed in transfected cells; host or cells: MDCKII. The protocol: as §2, §3
Data set [5] relates to CYP3A4 mRNA. The data set can be described thus: CYP3A4 mRNA induction in cryopreserved human hepatocytes. The conditions noted are these: for CYP3A4 mRNA induction, % PC: % of positive control response; for CYP3A4 mRNA Fold induction: human hepatocytes, maximal.
For data set [6], the target named is T4, OAT1 (Homo sapiens, UniProt Q4U2R8).
T4 construct: expressed in transfected cells; host or cells: MDCKII or HEK293
T4 sequence (Q4U2R8 whole entry): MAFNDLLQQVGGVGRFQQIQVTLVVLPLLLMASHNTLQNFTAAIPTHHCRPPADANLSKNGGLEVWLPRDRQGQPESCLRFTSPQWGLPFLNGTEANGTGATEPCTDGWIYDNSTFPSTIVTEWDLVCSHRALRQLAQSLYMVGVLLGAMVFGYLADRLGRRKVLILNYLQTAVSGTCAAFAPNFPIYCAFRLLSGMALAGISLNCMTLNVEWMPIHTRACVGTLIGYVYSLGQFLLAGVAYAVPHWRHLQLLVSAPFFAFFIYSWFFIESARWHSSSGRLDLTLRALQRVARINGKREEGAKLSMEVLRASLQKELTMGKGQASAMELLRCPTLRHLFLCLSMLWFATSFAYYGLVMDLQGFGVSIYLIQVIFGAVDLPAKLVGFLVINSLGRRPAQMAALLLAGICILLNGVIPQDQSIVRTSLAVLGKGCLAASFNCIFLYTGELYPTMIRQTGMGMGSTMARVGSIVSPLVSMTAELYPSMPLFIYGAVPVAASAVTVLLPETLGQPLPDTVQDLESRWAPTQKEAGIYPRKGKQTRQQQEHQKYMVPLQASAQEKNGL
The data set can be described thus: OAT1 uptake transporter inhibition in MDCKII or HEK293 cells. The conditions noted are these: substrate Estrone-3-sulfate (E3S) (5 μM). The protocol:
as §2, §3

Where [7] appears, read: read-out: IC50, 30 min Pre-incubation.
[8] abbreviates: read-out: IC50, No Pre-incubation.

Sequence of Pgp (P08183 whole entry): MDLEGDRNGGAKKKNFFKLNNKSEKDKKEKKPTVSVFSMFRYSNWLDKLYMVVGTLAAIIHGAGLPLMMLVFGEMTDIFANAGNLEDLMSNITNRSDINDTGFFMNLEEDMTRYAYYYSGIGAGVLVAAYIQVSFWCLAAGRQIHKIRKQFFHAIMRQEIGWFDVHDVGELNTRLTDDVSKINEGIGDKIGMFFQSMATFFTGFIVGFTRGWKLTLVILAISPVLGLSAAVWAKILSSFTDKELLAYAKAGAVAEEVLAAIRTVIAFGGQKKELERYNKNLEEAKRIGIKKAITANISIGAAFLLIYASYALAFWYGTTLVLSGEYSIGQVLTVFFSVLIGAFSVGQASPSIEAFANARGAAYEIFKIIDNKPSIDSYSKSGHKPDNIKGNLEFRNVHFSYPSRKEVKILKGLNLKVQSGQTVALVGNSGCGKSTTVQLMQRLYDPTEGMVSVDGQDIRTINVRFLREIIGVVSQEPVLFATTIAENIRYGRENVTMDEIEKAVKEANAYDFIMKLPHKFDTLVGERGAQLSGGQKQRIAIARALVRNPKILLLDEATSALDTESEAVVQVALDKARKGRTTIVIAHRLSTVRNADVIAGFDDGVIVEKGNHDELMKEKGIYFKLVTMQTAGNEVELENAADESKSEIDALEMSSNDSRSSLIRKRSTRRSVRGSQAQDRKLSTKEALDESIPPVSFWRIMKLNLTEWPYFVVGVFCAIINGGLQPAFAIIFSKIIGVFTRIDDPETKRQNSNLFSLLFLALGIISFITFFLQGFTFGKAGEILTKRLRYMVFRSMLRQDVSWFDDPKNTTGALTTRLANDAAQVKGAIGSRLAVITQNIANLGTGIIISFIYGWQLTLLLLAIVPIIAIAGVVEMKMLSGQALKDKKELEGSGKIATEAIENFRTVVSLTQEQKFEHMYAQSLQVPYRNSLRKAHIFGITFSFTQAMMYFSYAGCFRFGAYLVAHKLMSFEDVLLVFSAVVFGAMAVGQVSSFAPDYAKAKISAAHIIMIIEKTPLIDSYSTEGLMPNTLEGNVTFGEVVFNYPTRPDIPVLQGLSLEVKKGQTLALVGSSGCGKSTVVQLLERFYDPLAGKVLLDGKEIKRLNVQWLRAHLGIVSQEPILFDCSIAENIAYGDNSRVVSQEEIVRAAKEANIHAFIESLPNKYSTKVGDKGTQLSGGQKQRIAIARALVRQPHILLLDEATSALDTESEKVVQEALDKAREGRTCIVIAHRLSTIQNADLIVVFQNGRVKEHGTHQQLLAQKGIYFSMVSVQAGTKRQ
T3 sequence (P33261 whole entry): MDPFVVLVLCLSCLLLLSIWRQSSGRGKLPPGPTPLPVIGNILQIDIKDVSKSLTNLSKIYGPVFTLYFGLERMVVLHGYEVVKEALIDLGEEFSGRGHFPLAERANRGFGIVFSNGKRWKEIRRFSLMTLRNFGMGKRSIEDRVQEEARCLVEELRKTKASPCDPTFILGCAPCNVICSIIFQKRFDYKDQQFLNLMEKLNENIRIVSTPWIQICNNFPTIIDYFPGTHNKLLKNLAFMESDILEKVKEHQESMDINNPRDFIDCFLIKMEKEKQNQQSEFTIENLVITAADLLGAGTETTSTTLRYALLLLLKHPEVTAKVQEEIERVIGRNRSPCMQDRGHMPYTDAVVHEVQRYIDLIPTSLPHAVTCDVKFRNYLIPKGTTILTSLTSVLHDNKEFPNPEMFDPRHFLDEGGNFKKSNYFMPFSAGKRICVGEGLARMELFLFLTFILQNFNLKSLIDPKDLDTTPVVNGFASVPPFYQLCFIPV

In general, pIC50 refers to −log10 of the IC50, conventionally taken in molar units. As a reminder, the inhibition is the percentage by which the read-out fell short of the control. Turning to `COc1cc(O[C@H]2C(C)(C)[C@H](NC(=O)c3ccc(N4CCC(CN5CCN(c6ccc(C(=O)N[C@H]7CCC(=O)NC7=O)c(F)c6)CC5)CC4)cc3)C2(C)C)ccc1C#N` [Compound A, 4-(4-((1-(4-(((1R,3R)-3-(4-cyano-3-methoxyphenoxy)-2,2,4,4-tetramethylcyclobutyl)carbamoyl)phenyl)piperidin-4-yl)methyl)piperazin-1-yl)-N—((S)-2,6-dioxopiperidin-3-yl)-2-fluorobenzamide], the pIC50 was below 4.82 in data set [1] (setting [7]); below 4.82 in data set [1] (setting [8]); 5.81 in data set [2] (monolayer assays); below 4.82 in data set [3] (setting [7]); below 4.82 in data set [3] (setting [8]); below 5.30 in data set [4] (Pgp, Monolayers, substrate Digoxin (5 μM)). In data set [6], this compound gave a pIC50 below 5.43. For the same compound, the inhibition at 1 µM in data set [2] (BCRP-expressed MDCKII cell monolayers, probe Prazosin (1 μM), Monolayers, substrate Prazosin (1 μM), read-out: Maximal % Inhibition) turned out to be 54%. Further, the “Pgp inhibition in the MDCKII bidirectional assays” value in data set [4] (MDCKII bidirectional assays) is “not observed”. In addition, the inhibition at 5 µM in data set [4] (Pgp-expressed MDCKII cell monolayers, probe Digoxin (5 μM), Pgp, Monolayers, substrate Digoxin (5 μM), read-out: Maximal % Inhibition) is below 20%. For the same compound, the “CYP3A4 mRNA induction, % PC” value in data set [5] (Donor 1) is reported as 5 % PC; in data set [5] (Donor 2) it was 6 % PC; in data set [5] (Donor 3) it was 5 % PC. Besides, the “CYP3A4 mRNA Fold induction” value in data set [5] (Donor 1) is listed as 8.8 Fold; in data set [5] (Donor 2) it was 2.5 Fold; in data set [5] (Donor 3), 3.3 Fold. Besides, in data set [5] (all three donors, at 0.1-0.3 μM), the “CYP3A4 mRNA induction, % of positive control response” value is on record as 4-6%. The fold induction at 48 h in data set [5] (human, cryopreserved human hepatocytes, all three donors, at 0.1-0.3 μM, read-out: Maximal fold induction in CYP3A4 mRNA) lay in the range of 2.5 to 8.8.
